# Laboratory results from PMC4199632, “Exploring the Anti-Cancer Activity of Novel Thiosemicarbazones Generated through the Combination of Retro-Fragments: Dissection of Critical Structure-Activity Relationships” (PLoS ONE, 2014).
# Tests used:
# [1] = system: HCT116 p53+/+ colon cancer cells; assay: Proliferation assay (MTS, 96 h); format: cell-based, human; details: for IC50: Homo sapiens, HCT-116, 96 h incubation, MTS, mean ±SD (3 experiments)
# Method: (§1) The human cancer cell types (neuroepithelioma (SK-N-MC), colon cancer (HCT116 with wild-type p53 (p53^+/+)), Burkitt's lymphoma (Raji) and cervical carcinoma (HeLa)) cells and normal human dermal fibroblasts (NHDF) were obtained from the American Type Culture Collection (ATCC, Manassas, VA, USA). HCT116 null p53 (p53^−/−) cells were obtained from the Maria Sklodowska-Curie Memorial Cancer Center and Institute of Oncology, Poland.
# (§2) The SK-N-MC cells were cultured in minimum essential medium (MEM; Life Technologies, Grand Island, New York, USA) containing 10% (v/v) fetal bovine serum (FBS; Life Technologies), 1 mM sodium pyruvate (Life Technologies), 1% (v/v) non-essential amino acids (Life Technologies), 2 mM L-glutamine (Life Technologies), 100 U/mL penicillin (Life Technologies), 100 µg/mL streptomycin (Life Technologies) and 0.28 µg/mL fungizone (Bristol Myers Squibb Pharmaceuticals, Montreal, Canada). The HCT116 and NHDF cells were grown in Dulbecco's modified Eagle's medium (DMEM; Sigma-Aldrich) supplemented with 12% (v/v) heat-inactivated FBS (HCT116; Life Technologies) or 15% (v/v) FBS (NHDF; Life Technologies), 100 µg/mL of gentamicin (Polfa Warszawa S.A., Warsaw, Poland), 100 µg/mL of streptomycin (Polfa) and 100 U/mL of penicillin (Polfa). The Raji and HeLa cells were cultured in Roswell Park Memorial Institute medium (RPMI-1640; Sigma-Aldrich) with the addition of 10% (v/v) heat-inactivated FBS (Life Technologies) and the supplements described for SK-N-MC cells above. All cell lines were cultured under standard conditions at 37°C in a humidified atmosphere at 5% CO2 and were subcultured every 3–4 days as required.
# (§3) The cells were seeded in 96-well plates (SK-N-MC: 1.5×10^4 cells/well; HeLa: 5.0×10^3 cells/well; Raji: 3.0×10^3 cells/well; HCT116: 3.5×10^3 cells/well; NHDF: 3.0×10^3 cells/well) 24 h prior to the addition of the novel compounds. The assays were performed using a 72 h (SK-N-MC, Raji, HeLa) or 96 h (HCT 116, NHDF) incubation period with the agents at 37°C. […] Additionally, DFO and Dp44mT were included as positive controls in all experiments as their activity is well characterized, [42], [50].
# (§4) Chelator stock solutions were prepared in DMSO and diluted in media so that the final [DMSO] <0.05%. The results were expressed as a percentage of the control and the resulting IC50 values were calculated using GraphPad Prism 5 (GraphPad Software, Inc., La Jolla, CA, USA). The IC50 was defined as the concentration necessary to reduce the absorbance to 50% of the untreated control. Each individual compound was tested in triplicate in a single experiment, with each experiment being repeated three times. After incubation of HCT 116 and NHDF cells with the tested compounds, 20 µL of the CellTiter 96 Aqueous One Solution - MTS (Promega, Madison, WI, USA) solution was added to each well (with 100 µL of DMEM without phenol red) and incubated for 1 h/37°C. The optical density of the samples was analyzed at 490 nm.
# [2] = system: HCT116 p53−/− colon cancer cells; assay: Proliferation assay (MTS, 96 h); format: cell-based, human; details: for IC50: Homo sapiens, HCT-116, 96 h, 96 h incubation, MTS, mean ±SD (3 experiments)
# Method: as §1, §2, §3, §4
# [3] = system: Raji Burkitt's lymphoma cells; assay: Proliferation assay (MTT, 72 h); format: cell-based; details: Homo sapiens, 72 h incubation, mean ±SD (3 experiments)
# Method: as §1, §2, §3, §4
# (§5) MTT (3-[4,5-dimethylthiazol-2-yl]-2,5-diphenyltetrazolium bromide) was used to evaluate the anti-proliferative effects of the chelators in SK-N-MC and Raji cells. Following incubation with the investigated compounds, 10 µL of MTT (5 mg/mL in PBS; Sigma-Aldrich) was added to each well. After a 2 h (SK-N-MC) or 4 h (Raji) incubation, the plates were centrifuged, and the cells were lysed with 100 µL of 10% SDS-50% isobutanol in 0.01 M HCl (SK-N-MC) or DMSO (Raji). The absorbance was measured at 570 nm. The anti-proliferative effects of these novel agents on HeLa cells were estimated using crystal violet staining (0.5% crystal violet solution for 10 min). Finally, the wells were rinsed with water and the cells were lysed with 2% SDS. The optical density of the samples was analyzed at 595 nm.
# [4] = system: SK-N-MC neuroepithelioma cells; assay: Proliferation assay (MTT, 72 h); format: cell-based; details: Homo sapiens, 72 h incubation, mean ±SD (3 experiments)
# Method: as §1, §2, §3, §4, §5
# [5] = system: HeLa cervical carcinoma cells; assay: Proliferation assay (crystal violet, 72 h); format: cell-based; details: Homo sapiens, 72 h incubation, mean ±SD (3 experiments)
# Method: as §1, §2, §3, §4, §5
# [6] = system: normal human dermal fibroblast (NHDF) cells; assay: Proliferation assay (MTS, 96 h), normal mortal cells; format: cell-based; details: Homo sapiens, NHDF, 96 h, 96 h incubation, mean ±SD (3 experiments)
# Method: as §1, §2, §3, §4
# [7] = Ascorbate oxidation assay (iron complexes); format: biochemical; details: iron complex; for Ascorbate oxidation (% of the control): FeIII 10 µM, ascorbate 100 µM
# Method: The ability of the iron complexes of the novel ligands to mediate the oxidation of the physiological substrate, ascorbate, was examined using established methods, [18], [22], [52], [53]. Ascorbic acid (100 µM) was prepared immediately prior to each experiment and was incubated in the presence of Fe^III (10 µM; as FeCl3), the chelator (1–60 µM) and a 50-fold molar excess of citrate (500 µM). The absorbance at 265 nm was measured after 10 and 40 min and the difference in absorbance at these time points was calculated. The results of these experiments were expressed as iron-binding equivalents (IBE) due to the different denticity of the chelators examined. The chelators, Dp44mT, DFO and ethylenediaminetetraacetic acid (EDTA) were used as controls as the ability of their iron complexes to oxidize ascorbate has been extensively characterized, [15], [52], [53].
# The ability of the iron complexes of the novel TSCs to catalyze the oxidation of the physiological substrate, ascorbate, was important to assess as redox cycling may play a critical role in their anti-proliferative activity, [15], [18], [52], [53]. Thus, the oxidation of ascorbate mediated by the iron complexes of series 1–6 were examined in comparison to the iron complexes of the control compounds, DFO, EDTA and Dp44mT, as the ability of the latter to oxidize ascorbate is well characterized, [15], [52], [53], [68]. The results were expressed as a percentage of the control (no chelator) at iron-binding equivalents (IBEs) of 0.1 (excess “free” iron), 1 (iron-chelator complexes with a fully filled coordination sphere), or 3 (excess free chelator), due to the different denticity of the chelators examined (Fig. 10).
# Figure 10 Effect of the iron complexes of (A) series 1, (B) series 2, (C) series 3, (D) series 4, (E) series 5 and (F) series 6 chelators, relative to DFO, Dp44mT and EDTA, on ascorbate oxidation. Chelators at iron-binding equivalent (IBE) ratios of 0.1, 1, and 3 were incubated in the presence of Fe^III (10 µM) and ascorbate (100 µM). The UV-Vis absorbance at 265 nm was recorded after 10 and 40 min, and the difference between the time points was calculated. Results are mean ±SD (3 experiments).
# [8] = system: HCT116 p53+/+, HCT116 p53−/−, Raji, HeLa, SK-N-MC and NHDF cells; assay: Proliferation assay, ranges stated over several cell-types; format: cell-based, human
# Method: as §1, §2, §3, §4, §5
IC50 [1] [µM],IC50 [2] [µM],IC50 [3] [µM],IC50 [4] [µM],IC50 [5] [µM],"IC50 ([8]; Homo sapiens, HCT-116, range over HCT116 p53+/+ and p53−/− cells and over the compounds named, read-out: IC50 range in HCT116 cells) [µM]",Compound,IC50 [6] [µM],Ascorbate oxidation compared with controls ([7]; IBE 3),Ascorbate oxidation (% of the control) ([7]; IBE 3),Ascorbate oxidation (% of the control) ([7]; IBE 0.1) [%],Ascorbate oxidation (% of the control) ([7]; IBE 1) [%],Therapeutic index NHDF vs. HCT116 p53+/+ ([1]; NHDF cell IC50 divided by HCT116 p53+/+ IC50),Therapeutic index NHDF vs. HCT116 p53−/− ([2]; NHDF cell IC50 divided by HCT116 p53−/− IC50),"Therapeutic index, NHDF relative to HCT116 cells ([8]; range over HCT116 p53+/+ and p53−/− and over the compounds named)"
9.7 ± 2.5,10.6 ± 1.2,2.6 ± 0.33,5.42 ± 0.64,16.4 ± 4.5,,Oc1ccccc1/C=N/NC(=S)N1CCN(c2ccccn2)CC1 [6d],18.4 ± 1.9,decreased ascorbate oxidation relative to the control,,,,,,
6.15 ± 1.28,8.72 ± 1.64,0.11 ± 0.02,,1.12 ± 0.03,,CCN1CCN(C(=S)N/N=C/c2cnc3ccccc3n2)CC1 [5a],2.73 ± 1.77,,,,,,,
> 25,> 25,10.2 ± 6.6,> 6.25,22.1 ± 5.4,,CCN1CCN(C(=S)N/N=C/c2ccccc2O)CC1 [6a],> 25,decreased ascorbate oxidation relative to the control,,,,,,
3.92 ± 0.74,2.24 ± 1.47,0.5 ± 0.05,3.44 ± 1.12,6.05 ± 2.73,,S=C(N/N=C/c1cnc2ccccc2n1)N1CCN(c2ccccc2)CC1 [5b],9.61 ± 0.9,,,,,,,
9.4 ± 0.8,9.41 ± 1.04,0.49 ± 0.09,2.33 ± 0.09,1.78 ± 0.77,,S=C(N/N=C/c1cnc2ccccc2n1)N1CCN(c2ccccn2)CC1 [5d],7.13 ± 0.82,decreased ascorbate oxidation relative to the control,,,,,,
5.73 ± 0.75,8.49 ± 3.05,0.27 ± 0.01,1.98 ± 0.68,3.77 ± 1.71,,S=C(N/N=C/c1cnc2ccccc2n1)N1CCN(c2cnccn2)CC1 [5e],15.8 ± 5.1,increased levels of ascorbate oxidation,,,,,,
10.9 ± 0.7,10.7 ± 1,9.83 ± 2.05,> 6.25,19.2 ± 2.5,,Oc1ccccc1/C=N/NC(=S)N1CCN(c2cnccn2)CC1 [6e],> 25,,,,,,,

# Second part, the molecule before the results:
Compound,IC50 [1] [µM],IC50 [2] [µM],IC50 [3] [µM],IC50 [4] [µM],IC50 [5] [µM],"IC50 ([8]; Homo sapiens, HCT-116, range over HCT116 p53+/+ and p53−/− cells and over the compounds named, read-out: IC50 range in HCT116 cells) [µM]",IC50 [6] [µM],Ascorbate oxidation compared with controls ([7]; IBE 3),Ascorbate oxidation (% of the control) ([7]; IBE 3),Ascorbate oxidation (% of the control) ([7]; IBE 0.1) [%],Ascorbate oxidation (% of the control) ([7]; IBE 1) [%],Therapeutic index NHDF vs. HCT116 p53+/+ ([1]; NHDF cell IC50 divided by HCT116 p53+/+ IC50),Therapeutic index NHDF vs. HCT116 p53−/− ([2]; NHDF cell IC50 divided by HCT116 p53−/− IC50),"Therapeutic index, NHDF relative to HCT116 cells ([8]; range over HCT116 p53+/+ and p53−/− and over the compounds named)"
S=C(N/N=C/c1ccc2ccccc2n1)N1CCN(c2cnccn2)CC1 [2e],0.088 ± 0.044,0.48 ± 0.15,0.29 ± 0.11,0.48 ± 0.1,1.56 ± 0.44,,9.44 ± 3.84,,200–265%,,,,,
"O=C(O)CN(CCN(CC(=O)O)CC(=O)O)CC(=O)O [EDTA, ethylenediaminetetraacetic acid, reference compound]",,,,,,,,,936%,208,449,,,
Oc1cccc2ccc(/C=N/NC(=S)N3CCN(c4ccccn4)CC3)nc12 [3d],8.41 ± 1.78,8.46 ± 0.25,0.12 ± 0.04,> 6.25,6.59 ± 0.13,,10.2 ± 2.4,,,,,,,
CCN1CCN(C(=S)NN=C(c2ccccn2)c2ccccn2)CC1 [1a],0.02 ± 0.002,0.04 ± 0.003,0.08 ± 0.02,0.18 ± 0.09,0.48 ± 0.31,,0.017 ± 0.004,,,,,,,
Oc1ccc2cccnc2c1/C=N/NC(=S)N1CCN(c2cnccn2)CC1 [4e],10.1 ± 0.7,9.44 ± 1.35,4.55 ± 2.52,4.17 ± 1.44,3.49 ± 0.04,,9.56 ± 1.44,,,,,,,
CCN1CCN(C(=S)N/N=C/c2ccc3cccc(O)c3n2)CC1 [3a],9.25 ± 1.42,8.83 ± 0.63,0.2 ± 0.02,0.82 ± 0.61,3.41 ± 1.46,,15.8 ± 4.6,increased levels of ascorbate oxidation,,,,,,
CN(C(=S)N/N=C/c1c(O)ccc2cccnc12)C1CCCCC1 [4f],19 ± 0.5,18.9 ± 3.6,0.46 ± 0.23,> 6.25,13.3 ± 1,,9.18 ± 3.68,,,,,,,
Oc1ccc2cccnc2c1/C=N/NC(=S)N1CCN(c2ccccn2)CC1 [4d],9.15 ± 1.19,6.84 ± 5.48,1.55 ± 0.4,4.54 ± 1.6,2.73 ± 0.55,,10.1 ± 2.7,,,,,,,
Oc1cccc2ccc(/C=N/NC(=S)N3CCN(c4ccccc4)CC3)nc12 [3b],4.18 ± 1.46,4.67 ± 2.04,0.19 ± 0.02,> 6.25,8.45 ± 2.09,,8.88 ± 1.07,,,,,,,
Oc1ccc2cccnc2c1/C=N/NC(=S)N1CCN(c2ccccc2)CC1 [4b],7.45 ± 0.66,8.88 ± 2.53,2.23 ± 1.2,4.46 ± 0.78,4.38 ± 0.95,,10.1 ± 1.2,,,,,,,
Oc1cccc2ccc(/C=N/NC(=S)N3CCOCC3)nc12 [3c],0.004 ± 0.002,0.017 ± 0.006,0.02 ± 0.01,> 6.25,0.18 ± 0.07,0.002 to 0.017,,,,,,2650,624,18–2650
S=C(N/N=C/c1ccc2ccccc2n1)N1CCOCC1 [2c],1.49 ± 0.02,1.56 ± 1.12,0.06 ± 0.01,1.4 ± 0.69,1.75 ± 0.33,,3.27 ± 0.88,,,,,,,
